Measurements: patent US20230190687A1, “SODIUM BUTYRATE FOR USE IN THE PREVENTION OR TREATMENT OF RHINOVIRUS INFECTION” (priority 2020, published 2023)

Legend:
HRV1B Rhinovirus = assay: Conditioned media of treated THP-1 macrophages incubated with HRV1B Rhinovirus; measurable live virus titrated; assay type: cell-based; conditions: then incubated with HRV1B, compared with control (distilled water), n=3
Protocol: With reference to FIG. 1, an experiment was carried out to treat leukocytes (the human monocytic THP-1 macrophage cell line differentiated into macrophages) with sodium butyrate, Vitamin D, or with a combination of sodium butyrate and Vitamin D.
The leukocyte cells were incubated for a period of time to allow them to release proteins into the surrounding cell culture media (referred to as ‘conditioned media’). The conditioned media was then incubated with HRV1B Rhinovirus. The leukocyte cells were incubated with a solution comprising 0.5 mM sodium butyrate, a solution comprising 0.5 mM Vitamin D, and with a solution comprising both 0.5 mM sodium butyrate and 0.5 mM Vitamin D.
The data shown is an average of n=3 independent biological replicates (the titration is an average of ten fold reductions quantified over the three replicates).

influenza infection = conditions: exogenous LL-37, mouse models of influenza infection; Barlow et al 2011; cited from earlier work
Rhinovirus = conditions: exogenous LL-37, cell models; Casanova et al 2020; cited from earlier work

CCCC(=O)[O-].[Na+] [sodium butyrate]
reduction in measurable live virus (HRV1B Rhinovirus; conditioned media of THP-1 macrophages incubated with 0.5 mM sodium butyrate): 75-80%

Vitamin D
reduction in measureable live virus (in words) (HRV1B Rhinovirus; conditioned media of THP-1 macrophages incubated with 0.5 mM Vitamin D, or 0.5 mM sodium butyrate and 0.5 mM Vitamin D): significant reduction

LL-37: a human member of the cathelicidin family (LLGDFFRKSKEKIGKEFKRIVQRIKDFLRNLVPRTES; Antibacterial peptide LL-37; UniProt P49913 134-170, looked up)
inflammation (influenza infection): decrease inflammation | survival rates (influenza infection): enhanced survival rates | Rhinovirus induced inflammatory cytokine release (Rhinovirus): reduce Rhinovirus induced inflammatory cytokine release
